Laboratory results published in US20200095241A1, “SUBSTITUTED 1,2,4-THIADIAZOLYLPYRROLONES AND 1,2,4-THIADIAZOLYLHYDANTOINS AND SALTS THEREOF AND USE THEREOF AS HERBICIDES” (Bayer CropScience Aktiengesellschaft, priority 2016, published 2020).

Tests used:
Abutilon theophrasti = experiment: Post-emergence herbicidal action; format: in vivo; conditions: about 3 weeks after treatment
Method: (§1) Seeds of monocotyledonous and dicotyledonous weeds and crop plants were placed in sandy loam in plastic or wood-fiber pots, covered with soil and cultivated in a greenhouse under controlled growth conditions. 2 to 3 weeks after sowing, the test plants were treated at the one-leaf stage. The compounds of the invention, formulated in the form of wettable powders (WP) or as emulsion concentrates (EC), were then sprayed onto the green parts of the plants as aqueous suspension or emulsion with addition of 0.5% additive at a water application rate of 600 l/ha (converted). After the test plants had been kept in the greenhouse under optimum growth conditions for about 3 weeks, the activity of the preparations was rated visually in comparison to untreated controls. For example, 100% activity=the plants have died, 0% activity=like control plants. Tables A1 to A12 below show the effects of selected compounds of the general formula (I) according to Tables I.1 to I.44 on various harmful plants and an application rate corresponding to 1280 g/ha or 320 g/ha, which were obtained by the experimental procedure mentioned above.

Pharbitis purpurea = experiment: Post-emergence herbicidal action; format: in vivo; conditions: about 3 weeks after treatment
Method: as §1

Polygonum convolvulus [1] = experiment: Post-emergence herbicidal action; format: in vivo; conditions: about 3 weeks after treatment
Method: as §1

Setaria viridis [2] = experiment: Post-emergence herbicidal action; format: in vivo; conditions: about 3 weeks after treatment
Method: as §1

Stellaria media [3] = experiment: Post-emergence herbicidal action; format: in vivo; conditions: Stellaria media, 504 h, about 3 weeks after treatment, read-out: Stellaria media, herbicidal activity rated visually
Method: as §1

Viola tricolor [4] = experiment: Post-emergence herbicidal action; format: in vivo; conditions: 504 h, about 3 weeks after treatment, read-out: Viola tricolor, herbicidal activity rated visually
Method: as §1

Matricaria inodora [5] = experiment: Pre-emergence herbicidal action; format: in vivo; conditions: after about 3 weeks
Source text: (§2) Seeds of monocotyledonous and dicotyledonous weed plants and crop plants were placed in plastic or organic planting pots and covered with soil. The compounds of the invention, formulated in the form of wettable powders (WP) or as emulsion concentrates (EC), were then applied onto the surface of the covering soil as aqueous suspension or emulsion with addition of 0.5% additive at a water application rate of 600 l/ha (converted). After the treatment, the pots were placed in a greenhouse and kept under good growth conditions for the test plants. After about 3 weeks, the effect of the preparations was scored visually in comparison with untreated controls as percentages. For example, 100% activity=the plants have died, 0% activity=like control plants. Tables B1 to B15 below show the effects of selected compounds of the general formula (I) according to Tables I.1 to I.44 on various harmful plants and an application rate corresponding to 1280 g/ha or 320 g/ha, which were obtained by the experimental procedure mentioned above.

Stellaria media [6] = experiment: Pre-emergence herbicidal action; format: in vivo; conditions: after about 3 weeks
Source text: as §2

Viola tricolor [7] = experiment: Pre-emergence herbicidal action; format: in vivo; conditions: after about 3 weeks
Source text: as §2

photosystem II (PS II) = molecular target: T1, photosystem II (PS II) (Spinacia oleracea, UniProt P69560); experiment: Measurement of the PS II activity in thylakoid membranes (DCPIP reduction); format: biochemical; conditions: 100 μM test compound, spinach thylakoid membranes, DCPIP 120 μM, 10 min at 22° C. with exposure to light; read-out: Effect (inhibition of PS II activity)
T1 construct: the chloroplasts were osmotically ruptured and the thylakoid membranes were then obtained by centrifugation; from tissue; host or cells: fresh spinach leaves; thylakoid membranes isolated from chloroplasts
Method: Cooled fresh spinach leaves were comminuted and homogenized in 50 mM phosphate buffer, pH 6.8. 10 mM KCl, 0.34 M sucrose (sucrose buffer) (blender, 1 g of plant material/ml). The homogenate was subsequently filtered through 4 layers of Miracloth and the chloroplasts were isolated by centrifugation, i.e. 10 min of centrifugation at 4400×g (4° C.). The sediment was suspended in 25 ml of sucrose buffer and re-centrifuged for 10 min at 4400×g (4° C.). The sediment was then suspended in 40 ml of 50 mM phosphate buffer, pH 6.8, 10 mM KCl, without sucrose. In this step, the chloroplasts were osmotically ruptured and the thylakoid membranes were then obtained by centrifugation (10 min, 4400×g, 4° C.). The membrane sediment was finally suspended in 20 ml of 50 mM phosphate buffer, pH 6.8, 10 mM KCl. Following protein determination and activity determination, the membrane suspension was divided into aliquots and frozen in liquid nitrogen. The aliquots were stored at −80° C. Under these conditions, the photosystem II preparation was storage stable for at least three months. The activity determination of photosystem II (PS II) was then carried out using the following test principle:
The electron transfer from PS II to an artificial electron acceptor, 2,6-dichlorophenolindophenol (DCPIP), was measured with exposure to light. The concentration of the blue oxidized form of DCPIP was determined spectrophotometrically at wavelength λ=595 nm. […] The activity determination was carried out in microtiter plates (96 cavities) in a reaction volume of 200 μl. Here, 155 μl of dilute membrane suspension were initially charged in 50 mM of phosphate buffer, pH 6.8, 10 mM KCl. Depending on the activity of the PS II preparation, the dilution was adjusted such that the measurement of the decrease in absorption (λ=595 nm) was linear for at least 10 min. In each case 5 μl solution of the test compounds of a concentration of 100 μM in DMSO were added to the enzyme suspension; controls contained 5 μl DMSO; the final concentration of DMSO in the reaction batch was thus 2.5% (v/v); this concentration had no adverse effect on the enzymatic activity. On each microtiter plate, a known PS II inhibitor, for example metribuzin, was used as standard, which allowed the quality of the PS II test to be assessed. The reaction was started by addition of 40 μl DCPIP solution (600 μM in distilled water); the final concentration of DCPIP was 120 μM. Measurement of absorption was carried out over a period of 10 min at 22° C. and with exposure to light. Using metribuzin as comparative substance, the results for the efficacy of the compounds of the general formula (I) at 100 μM are stated in the table below using the following classification: ++++ (inhibition≥90%), +++ ([…]≥70%), ++ (70%>inhibition≥50%), + (50%>inhibition≥30%).

Matricaria inodora [8] = experiment: Post-emergence herbicidal action; format: in vivo; conditions: 1280 g/ha, about 3 weeks after treatment
Method: as §1

Poa annua = experiment: Pre-emergence herbicidal action; format: in vivo; conditions: 1280 g/ha, after about 3 weeks
Source text: as §2

Setaria viridis [9] = experiment: Pre-emergence herbicidal action; format: in vivo; conditions: Setaria viridis, 504 h, 1280 g/ha, after about 3 weeks, read-out: Setaria viridis, herbicidal effect scored visually
Source text: as §2

Alopecurus myosuroides = experiment: Pre-emergence herbicidal action; format: in vivo; conditions: 1280 g/ha, after about 3 weeks
Source text: as §2

Polygonum convolvulus [10] = experiment: Pre-emergence herbicidal action; format: in vivo; conditions: 1280 g/ha, after about 3 weeks
Source text: as §2

Amaranthus retroflexus [11] = experiment: Post-emergence herbicidal action; format: in vivo; conditions: 1280 g/ha, about 3 weeks after treatment
Method: as §1

Veronica persica = experiment: Post-emergence herbicidal action; format: in vivo; conditions: 1280 g/ha, about 3 weeks after treatment
Method: as §1

Amaranthus retroflexus [12] = experiment: Pre-emergence herbicidal action; format: in vivo; conditions: 1280 g/ha, after about 3 weeks
Source text: as §2

[13] = Tripleurospermum inodorum, 504 h, 1280 g/ha, read-out: Matricaria inodora, herbicidal effect scored visually
[14] = Stellaria media, 504 h, 1280 g/ha, read-out: Stellaria media, herbicidal effect scored visually

COc1nsc(N2C(=O)C(C)=C(C)C2O)n1 (stereo not drawn) [I.2-363, 3,4-Dimethyl-5-hydroxy-1-(3-methoxy-1,2,4-thiadiazol-5-yl)-1,5-dihydro-2H-pyrrol-2-one]
80%: Pharbitis purpurea, herbicidal activity rated visually (Pharbitis purpurea; 320 g/ha) | pest or weed control at 320 g/ha (Viola tricolor [7]; Viola tricolor, 504 h, 320 g/ha, read-out: Viola tricolor, herbicidal effect scored visually)
> 90%: inhibition at 100 µM (stock) (photosystem II (PS II))
90%: pest or weed control at 320 g/ha (Abutilon theophrasti; Abutilon theophrasti, 504 h, 320 g/ha, read-out: Abutilon theophrasti, herbicidal activity rated visually) | pest or weed control at 320 g/ha (Stellaria media [3]; 320 g/ha) | pest or weed control at 320 g/ha (Matricaria inodora [5]; Tripleurospermum inodorum, 504 h, 320 g/ha, read-out: Matricaria inodora, herbicidal effect scored visually)
100%: Polygonum convolvulus, herbicidal activity rated visually (Polygonum convolvulus [1]; 320 g/ha) | pest or weed control at 320 g/ha (Setaria viridis [2]; Setaria viridis, 504 h, 320 g/ha, read-out: Setaria viridis, herbicidal activity rated visually) | pest or weed control at 320 g/ha (Viola tricolor [4]; 320 g/ha) | pest or weed control at 320 g/ha (Stellaria media [6]; Stellaria media, 504 h, 320 g/ha, read-out: Stellaria media, herbicidal effect scored visually)

CC1=C(Cl)C(=O)N(c2nc(C(C)C)ns2)C1O (stereo not drawn) [I.3-5, 3-Chloro-4-methyl-5-hydroxy-1-(3-isopropyl-1,2,4-thiadiazol-5-yl)-1,5-dihydro-2H-pyrrol-2-one]
100%: Matricaria inodora, herbicidal activity rated visually (Matricaria inodora [8]) | pest or weed control at 1280 g/ha (Stellaria media [3])
90%: pest or weed control at 1280 g/ha (Matricaria inodora [5]; [13]) | Poa annua, herbicidal effect scored visually (Poa annua) | pest or weed control at 1280 g/ha (Setaria viridis [9]) | pest or weed control at 1280 g/ha (Stellaria media [6]; [14])

COC(C)(C)c1nsc(N2C(=O)C(C)=C(Cl)C2O)n1 (stereo not drawn) [I.4-370, 4-Chloro-3-methyl-5-hydroxy-1-[3-(2-methoxyprop-2-yl)-1,2,4-thiadiazol-5-yl]-1,5-dihydro-2H-pyrrol-2-one]
100%: pest or weed control at 1280 g/ha (Stellaria media [6]; [14])

CC1=C(Br)C(=O)N(c2nc(C)ns2)C1O (stereo not drawn) [I.5-2]
80%: Abutilon theophrasti, herbicidal activity rated visually (Abutilon theophrasti; 1280 g/ha) | Setaria viridis, herbicidal activity rated visually (Setaria viridis [2]; 1280 g/ha) | Alopecurus myosuroides, herbicidal effect scored visually (Alopecurus myosuroides) | Polygonum convolvulus, herbicidal effect scored visually (Polygonum convolvulus [10])
90%: Matricaria inodora, herbicidal effect scored visually (Matricaria inodora [5]; 1280 g/ha) | Stellaria media, herbicidal effect scored visually (Stellaria media [6]; 1280 g/ha) | Viola tricolor, herbicidal effect scored visually (Viola tricolor [7]; 1280 g/ha)

CC(C)c1nsc(N2C(=O)N(C)CC2O)n1 (stereo not drawn) [I.13-5, 4-Hydroxy-1-methyl-3-[3-(isopropyl)-1,2,4-thiadiazol-5-yl]imidazolidin-2-one]
70 to 90%: inhibition at 100 µM (stock) (photosystem II (PS II))
90%: Pharbitis purpurea, herbicidal activity rated visually (Pharbitis purpurea; 1280 g/ha) | Polygonum convolvulus, herbicidal activity rated visually (Polygonum convolvulus [1]; 1280 g/ha) | pest or weed control at 1280 g/ha (Matricaria inodora [5]; [13]) | Polygonum convolvulus, herbicidal effect scored visually (Polygonum convolvulus [10]) | pest or weed control at 1280 g/ha (Stellaria media [6]; [14]) | pest or weed control at 1280 g/ha (Viola tricolor [7]; Viola tricolor, 504 h, 1280 g/ha, read-out: Viola tricolor, herbicidal effect scored visually)
100%: pest or weed control at 1280 g/ha (Abutilon theophrasti; Abutilon theophrasti, 504 h, 1280 g/ha, read-out: Abutilon theophrasti, herbicidal activity rated visually) | Amaranthus retroflexus, herbicidal activity rated visually (Amaranthus retroflexus [11]) | pest or weed control at 1280 g/ha (Setaria viridis [2]; Setaria viridis, 504 h, 1280 g/ha, read-out: Setaria viridis, herbicidal activity rated visually) | pest or weed control at 1280 g/ha (Stellaria media [3]) | Veronica persica, herbicidal activity rated visually (Veronica persica) | pest or weed control at 1280 g/ha (Viola tricolor [4]; 1280 g/ha) | Amaranthus retroflexus, herbicidal effect scored visually (Amaranthus retroflexus [12])
80%: pest or weed control at 1280 g/ha (Setaria viridis [9])
